From patent publication US20260306644A1, “ANTIBODY RECRUITING MOLECULES FOR THE TREATMENT OF CORONAVIRUS DISEASE-19” (priority 2023, published 2026)
pEC50, pIC50: −log10 of the molar value. Values joined by “and” are separate entries in the source; they are usually repeats but may differ in a detail not shown here. Identical values can stand only once. Like-named read-outs stand apart in the source and are kept apart here. Positions of bridges follow the written chain, without caps; N, C: chain ends. No end group written: not given here.

Assays:
SARS-CoV-2 Spike protein = SARS-CoV-2 Spike protein (Severe acute respiratory syndrome coronavirus 2, UniProt P0DTC2); test: Ternary binding of SARS-CoV-2 Spike protein (293T cells expressing Spike-GFP, IgG-AF647, flow cytometry); type: cell-based; conditions: 293T cells expressing Spike-GFP; IgG-AF647 10 μg/ml; repeat values/batches listed separately; read-out: SARS-CoV-2 Ternary binding EC50
[1] = molecular target: T1, SARS-CoV-2 Spike A (wild-type) (Severe acute respiratory syndrome coronavirus 2, UniProt P0DTC2); test: MSD ACE2 competition assay (inhibition of Spike binding with ACE2, ECL), A (wild-type)
T1 construct: purchased Meso Scale Diagnostics, LLC V-PLEX SARS-CoV-2 Panel 13 (ACE2) Kit / Panel 23 (ACE2) Kit

[2] = IC50 Wild Type, Wild Type Spike
[3] = read-out: IC50 Wild Type, Wild Type Spike

| Compound | pEC50 (SARS-CoV-2 Spike protein) | pIC50 [1, 2] | pIC50 [1, 3] | IC50 [1, 2] |
| --- | --- | --- | --- | --- |
| CC[C@H](C)[C@H](NC(=O)[C@H](CC(C)C)NC(=O)[C@H](CC(=O)O)NC(=O)[C@H](CO)NC(=O)[C@@H](NC(=O)[C@H](CCCNC(=N)N)NC(=O)[C@H](CCSC)NC(=O)[C@H](CO)NC(=O)[C@H](C)NC(=O)[C@H](CCC(=O)O)NC(=O)[C@H](C)NC(=O)[C@H](Cc1c[nH]cn1)NC(=O)CNC(=O)[C@H](CC(C)C)NC(=O)[C@H](CCC(=O)O)NC(=O)[C@H](CC(=O)O)NC(=O)[C@H](CC(C)C)NC(=O)[C@H](CC(C)C)NC(=O)[C@H](CCCNC(=N)N)NC(=O)[C@H](CCSC)NC(=O)[C@@H](NC(=O)[C@H](CCC(=O)O)NC(=O)[C@H](Cc1ccc(O)cc1)NC(=O)[C@@H](NC(=O)[C@H](CCCCN)NC(=O)[C@H](CCC(N)=O)NC(=O)[C@H](CC(C)C)NC(=O)[C@@H](NC(=O)[C@H](Cc1c[nH]c2ccccc12)NC(=O)[C@H](CCC(=O)O)NC(=O)[C@H](CCCCN)NC(=O)[C@@H](N)CC(=O)O)[C@@H](C)CC)[C@@H](C)CC)[C@@H](C)CC)C(C)C)C(=O)N[C@@H](Cc1ccc(O)cc1)C(=O)N[C@@H](CCC(=O)O)C(=O)N[C@@H](Cc1ccccc1)C(=O)N[C@@H](CCSC)C(=O)N[C@@H](CCCCN)C(=O)N[C@@H](CCCCN)C(=O)NCC(=O)NCC(=O)NCC(=O)NCC(=O)N[C@@H](CC(=O)O)C(=O)N[C@H]1CSSC[C@@H](C(=O)N[C@H](C(=O)O)[C@@H](C)O)NC(=O)[C@H](Cc2c[nH]c3ccccc23)NC(=O)[C@H](C(C)C)NC(=O)[C@H](CC(C)C)NC(=O)[C@H](CCC(=O)O)NC(=O)CNC(=O)[C@H](CC(C)C)NC(=O)[C@H](Cc2c[nH]cn2)NC(=O)[C@H](Cc2c[nH]c3ccccc23)NC(=O)[C@H](C)NC1=O [Compound 106] | 8.59 and 8.60 | 7.66 | – | – |
| Ac-ILQKIYEIMRLCDELGHAEACMRVSDLIYEFMKKGDCAWHLGELVWCT-NH2 (disulfide 12-21, 37-47) [Compound 139] | 7.77 and 7.89 | – | 6.50 and 6.29 and 6.59 | – |
| CC[C@H](C)[C@H](NC(=O)[C@H](CC(C)C)NC(=O)[C@H](CC(=O)O)NC(=O)[C@H](CO)NC(=O)[C@@H](NC(=O)[C@H](CCCNC(=N)N)NC(=O)[C@H](CCSC)NC(=O)[C@H](CO)NC(=O)[C@H](C)NC(=O)[C@H](CCC(=O)O)NC(=O)[C@H](C)NC(=O)[C@H](Cc1c[nH]cn1)NC(=O)CNC(=O)[C@H](CC(C)C)NC(=O)[C@H](CCC(=O)O)NC(=O)[C@H](CC(=O)O)NC(=O)[C@H](CC(C)C)NC(=O)[C@H](CC(C)C)NC(=O)[C@H](CCCNC(=N)N)NC(=O)[C@H](CCSC)NC(=O)[C@@H](NC(=O)[C@H](CCC(=O)O)NC(=O)[C@H](Cc1ccc(O)cc1)NC(=O)[C@@H](NC(=O)[C@H](CCCCN)NC(=O)[C@H](CCC(N)=O)NC(=O)[C@H](CC(C)C)NC(=O)[C@@H](NC(=O)[C@H](Cc1c[nH]c2ccccc12)NC(=O)[C@H](CCC(=O)O)NC(=O)[C@H](CCCCN)NC(=O)[C@H](CC(=O)O)NC(C)=O)[C@@H](C)CC)[C@@H](C)CC)[C@@H](C)CC)C(C)C)C(=O)N[C@@H](Cc1ccc(O)cc1)C(=O)N[C@@H](CCC(=O)O)C(=O)N[C@@H](Cc1ccccc1)C(=O)N[C@@H](CCSC)C(=O)N[C@@H](CCCCN)C(=O)N[C@@H](CCCCN)C(=O)NCC(=O)N[C@@H](CCC(N)=O)C(=O)N[C@@H](C)C(=O)N1CCC[C@H]1C(=O)N[C@@H](CC(=O)O)C(=O)N[C@H]1CSSC[C@@H](C(=O)N[C@H](C(=O)O)[C@@H](C)O)NC(=O)[C@H](Cc2c[nH]c3ccccc23)NC(=O)[C@H](C(C)C)NC(=O)[C@H](CC(C)C)NC(=O)[C@H](CCC(=O)O)NC(=O)CNC(=O)[C@H](CC(C)C)NC(=O)[C@H](Cc2c[nH]cn2)NC(=O)[C@H](Cc2c[nH]c3ccccc23)NC(=O)[C@H](C)NC1=O [Compound 109] | 8.92 and 8.66 | 7.80 | – | – |
| CC[C@H](C)[C@H](NC(C)=O)C(=O)N[C@@H](CC(C)C)C(=O)N[C@@H](CCC(N)=O)C(=O)N[C@@H](CCCCN)C(=O)N[C@H](C(=O)N[C@@H](Cc1ccc(O)cc1)C(=O)N[C@@H](CCC(=O)O)C(=O)N[C@H](C(=O)N[C@@H](CCSC)C(=O)N[C@@H](CCCNC(=N)N)C(=O)N[C@@H](CC(C)C)C(=O)N[C@@H](CC(C)C)C(=O)N[C@@H](CC(=O)O)C(=O)N[C@@H](CCC(=O)O)C(=O)N[C@@H](CC(C)C)C(=O)NCC(=O)N[C@@H](Cc1c[nH]cn1)C(=O)N[C@@H](C)C(=O)N[C@@H](CCC(=O)O)C(=O)N[C@@H](C)C(=O)N[C@@H](CO)C(=O)N[C@@H](CCSC)C(=O)N[C@@H](CCCNC(=N)N)C(=O)N[C@H](C(=O)N[C@@H](CO)C(=O)N[C@@H](CC(=O)O)C(=O)N[C@@H](CC(C)C)C(=O)N[C@H](C(=O)N[C@@H](Cc1ccc(O)cc1)C(=O)N[C@@H](CCC(=O)O)C(=O)N[C@@H](Cc1ccccc1)C(=O)N[C@@H](CCSC)C(=O)N[C@@H](CCCCN)C(=O)N[C@@H](CCCCN)C(=O)NCC(=O)N[C@@H](CC(=O)O)C(=O)N[C@H]1CSSC[C@@H](C(=O)N[C@H](C(=O)O)[C@@H](C)O)NC(=O)[C@H](Cc2c[nH]c3ccccc23)NC(=O)[C@H](C(C)C)NC(=O)[C@H](CC(C)C)NC(=O)[C@H](CCC(=O)O)NC(=O)CNC(=O)[C@H](CC(C)C)NC(=O)[C@H](Cc2c[nH]cn2)NC(=O)[C@H](Cc2c[nH]c3ccccc23)NC(=O)[C@H](C)NC1=O)[C@@H](C)CC)C(C)C)[C@@H](C)CC)[C@@H](C)CC [Compound 116] | 8.03 and 7.96 | – | – | > 100 nM (2×) and 114 nM |
| Ac-QKIYEIMRLCDELGHAEACMRVSDLIYEFMKKGDCAWHLGELVWCT-NH2 (disulfide 10-19, 35-45) [Compound 164] | < 7.00 | – | < 5.00 | – |
| CC[C@H](C)[C@H](NC(=O)[C@H](CC(C)C)NC(=O)[C@H](CC(=O)O)NC(=O)[C@H](CO)NC(=O)[C@@H](NC(=O)[C@H](CCCNC(=N)N)NC(=O)[C@H](CCSC)NC(=O)[C@H](CO)NC(=O)[C@H](C)NC(=O)[C@H](CCC(=O)O)NC(=O)[C@H](C)NC(=O)[C@H](Cc1c[nH]cn1)NC(=O)CNC(=O)[C@H](CC(C)C)NC(=O)[C@H](CCC(=O)O)NC(=O)[C@H](CC(=O)O)NC(=O)[C@H](CC(C)C)NC(=O)[C@H](CC(C)C)NC(=O)[C@H](CCCNC(=N)N)NC(=O)[C@H](CCSC)NC(=O)[C@@H](NC(=O)[C@H](CCC(=O)O)NC(=O)[C@H](Cc1ccc(O)cc1)NC(=O)[C@@H](NC(=O)[C@H](CCCCN)NC(=O)[C@H](CCC(N)=O)NC(=O)[C@H](CC(C)C)NC(=O)[C@@H](NC(=O)[C@H](Cc1c[nH]c2ccccc12)NC(=O)[C@H](CCC(=O)O)NC(=O)[C@H](CCCCN)NC(=O)[C@H](CC(=O)O)NC(C)=O)[C@@H](C)CC)[C@@H](C)CC)[C@@H](C)CC)C(C)C)C(=O)N[C@@H](Cc1ccc(O)cc1)C(=O)N[C@@H](CCC(=O)O)C(=O)N[C@@H](Cc1ccccc1)C(=O)N[C@@H](CCSC)C(=O)N[C@@H](CCCCN)C(=O)N[C@@H](CCCCN)C(=O)NCC(=O)N[C@@H](CC(=O)O)C(=O)N[C@H]1CSSC[C@@H](C(=O)N[C@H](C(N)=O)[C@@H](C)O)NC(=O)[C@H](Cc2c[nH]c3ccccc23)NC(=O)[C@H](C(C)C)NC(=O)[C@H](CC(C)C)NC(=O)[C@H](CCC(=O)O)NC(=O)CNC(=O)[C@H](CC(C)C)NC(=O)[C@H](Cc2c[nH]cn2)NC(=O)[C@H](Cc2c[nH]c3ccccc23)NC(=O)[C@H](C)NC1=O [Compound 129] | 8.64 and 8.52 | 7.60 | – | – |
| Ac-ILQKIYEIMRLLDELGHAEASMRVSDLIYEFMKKDCAWHLGELVWCT (disulfide 36-46) [Compound 118] | 9.28 and 9.21 | 7.21 and 7.20 | – | – |
